Activity calls are given as the source filed them. The rule behind the calls is not given here.
How the values were obtained:
[1] = AUC (0 to t) in Sprague-Dawley rat at 4 mg/kg, ip measured upto 48 hrs; assay type: ADME, organism-based; conditions: in vivo
[2] = test system: Mus musculus; assay: Antiosteoclastogenic effects in LPS-soaked ligature-induced C57BL/6J mouse periodontal disease model assessed as reduction in periodontal alveolar bone loss at 10 mg/kg, ip treated on day 0, 1,4, 7 and measured on day 10 by Micro-CT 3D scan; assay type: functional, organism-based; conditions: time 7.0 day
[3] = biological target: T1, Protein cereblon/Tyrosine-protein kinase BTK (Mus musculus) (UniProt P35991+Q8C7D2); assay: PROTAC activity at BTK/CRBN in mCSF/RANKL-stimulated C57BL/6J mouse BMDM assessed as reduction in phosphorylated NFkappa-p65 protein level at 25 to 100 nM followed by stimulated with mCSF/RANKL measured after 2 hrs by Western blotting analysis; assay type: cell-based; conditions: dose 25-100 nM
[4] = test system: Mus musculus; assay: Antiosteoclastogenic effects in LPS-soaked ligature-induced C57BL/6J mouse periodontal disease model assessed as reduction in periodontal alveolar bone loss by measuring distance between the alveolar bone crest (ABC) at 10 to 30 mg/kg, ip treated on day 0, 1,4, 7 and measured on day 10 by Micro-CT 3D scan; assay type: functional, organism-based; conditions: dose 10-30 mg/kg, time 7.0 day
[5] = biological target: T1, Protein cereblon/Tyrosine-protein kinase BTK (Mus musculus); assay: PROTAC activity at BTK/CRBN in mCSF/RANKL-stimulated C57BL/6J mouse BMDM assessed as BTK protein degradation at 25 to 100 nM followed by stimulated with mCSF/RANKL measured after 2 hrs by Western blotting analysis; assay type: cell-based; conditions: dose 25-100 nM
[6] = test system: BMMC; assay: Inhibition of osteoclastogenesis in C57BL/6J mouse BMM cells assessed as inhibition of mCSF/RANKL-stimulated matured osteoclast formation measured after 5 days co-incubation by tartrate-resistant acid phosphatase (TRAP) staining assay; assay type: functional, cell-based; conditions: time 5.0 day
[7] = biological target: T2, Protein cereblon/Tyrosine-protein kinase BTK (Homo sapiens, UniProt Q06187+Q96SW2); assay: PROTAC activity at BTK/CRBN in human MINO cells assessed as BTK protein degradation at 20 nM measured after 24 hrs by Western blotting analysis relative to control; assay type: cell-based
Target sequence in this assay (Q06187 2-659 limits assumed): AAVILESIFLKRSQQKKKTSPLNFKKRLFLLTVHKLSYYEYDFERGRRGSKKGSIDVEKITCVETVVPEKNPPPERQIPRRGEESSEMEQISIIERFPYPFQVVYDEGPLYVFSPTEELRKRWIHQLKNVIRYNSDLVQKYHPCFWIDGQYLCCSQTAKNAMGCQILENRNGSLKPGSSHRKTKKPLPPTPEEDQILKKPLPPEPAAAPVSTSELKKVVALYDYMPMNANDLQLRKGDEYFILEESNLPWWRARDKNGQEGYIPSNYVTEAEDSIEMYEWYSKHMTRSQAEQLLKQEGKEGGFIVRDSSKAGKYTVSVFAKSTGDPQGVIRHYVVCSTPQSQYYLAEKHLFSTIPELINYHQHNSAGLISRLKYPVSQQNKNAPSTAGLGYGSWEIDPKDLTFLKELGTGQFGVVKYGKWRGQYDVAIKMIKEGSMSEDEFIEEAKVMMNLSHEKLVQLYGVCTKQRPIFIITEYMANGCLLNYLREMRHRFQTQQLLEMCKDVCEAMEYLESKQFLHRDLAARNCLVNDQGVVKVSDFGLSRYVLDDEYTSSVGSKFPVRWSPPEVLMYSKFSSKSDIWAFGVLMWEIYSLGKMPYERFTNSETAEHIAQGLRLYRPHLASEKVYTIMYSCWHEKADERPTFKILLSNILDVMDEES
Target sequence in this assay (Q96SW2 whole entry partner): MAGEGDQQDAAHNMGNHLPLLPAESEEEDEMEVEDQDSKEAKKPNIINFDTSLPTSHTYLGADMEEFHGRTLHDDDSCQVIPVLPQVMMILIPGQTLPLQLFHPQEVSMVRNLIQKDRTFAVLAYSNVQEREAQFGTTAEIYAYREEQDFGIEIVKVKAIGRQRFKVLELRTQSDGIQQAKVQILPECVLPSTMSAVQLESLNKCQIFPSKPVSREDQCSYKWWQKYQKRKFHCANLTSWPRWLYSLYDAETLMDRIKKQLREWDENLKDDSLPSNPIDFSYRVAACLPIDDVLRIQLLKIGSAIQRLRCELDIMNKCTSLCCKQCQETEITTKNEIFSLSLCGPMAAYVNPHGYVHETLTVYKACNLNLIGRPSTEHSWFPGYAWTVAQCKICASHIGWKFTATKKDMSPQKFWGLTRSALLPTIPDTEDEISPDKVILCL

[8] = test system: BMMC; assay: Cytotoxicity against C57BL/6J mouse BMM cells assessed as cell viability at 10 uM measured after 1 to 2 hrs by CCK8 assay; assay type: toxicity, cell-based; conditions: time 1-2 hrs
[9] = biological target: Tyrosine-protein kinase BTK (Homo sapiens, UniProt Q06187); assay: Binding affinity to BTK (unknown origin) assessed as inhibition constant measured after 60 mins incubation by microtiter-plate reader
[10] = biological target: T1, Protein cereblon/Tyrosine-protein kinase BTK (Mus musculus); assay: PROTAC activity at BTK/CRBN in mCSF/RANKL-stimulated C57BL/6J mouse BMDM assessed as reduction in phosphorylated JNK protein level at 25 to 100 nM followed by stimulated with mCSF/RANKL measured after 2 hrs by Western blotting analysis; assay type: cell-based; conditions: dose 25-100 nM
[11] = biological target: T2, Protein cereblon/Tyrosine-protein kinase BTK; assay: Binding affinity to BTK/CRBN (unknown origin) assessed as ternary complex formation by measuring peak concentration measured after 60 mins incubation by HTRF assay
Target sequence in this assay (Q06187 2-659 limits assumed): as the sequence (Q06187 2-659 limits assumed) above
Target sequence in this assay (Q96SW2 whole entry partner): as the sequence (Q96SW2 whole entry partner) above

[12] = biological target: T2, Protein cereblon/Tyrosine-protein kinase BTK; assay: PROTAC activity at BTK/CRBN in human MINO cells assessed as BTK protein degradation measured for 4 hrs by Western blotting analysis; assay type: cell-based
Target sequence in this assay (Q06187 whole entry): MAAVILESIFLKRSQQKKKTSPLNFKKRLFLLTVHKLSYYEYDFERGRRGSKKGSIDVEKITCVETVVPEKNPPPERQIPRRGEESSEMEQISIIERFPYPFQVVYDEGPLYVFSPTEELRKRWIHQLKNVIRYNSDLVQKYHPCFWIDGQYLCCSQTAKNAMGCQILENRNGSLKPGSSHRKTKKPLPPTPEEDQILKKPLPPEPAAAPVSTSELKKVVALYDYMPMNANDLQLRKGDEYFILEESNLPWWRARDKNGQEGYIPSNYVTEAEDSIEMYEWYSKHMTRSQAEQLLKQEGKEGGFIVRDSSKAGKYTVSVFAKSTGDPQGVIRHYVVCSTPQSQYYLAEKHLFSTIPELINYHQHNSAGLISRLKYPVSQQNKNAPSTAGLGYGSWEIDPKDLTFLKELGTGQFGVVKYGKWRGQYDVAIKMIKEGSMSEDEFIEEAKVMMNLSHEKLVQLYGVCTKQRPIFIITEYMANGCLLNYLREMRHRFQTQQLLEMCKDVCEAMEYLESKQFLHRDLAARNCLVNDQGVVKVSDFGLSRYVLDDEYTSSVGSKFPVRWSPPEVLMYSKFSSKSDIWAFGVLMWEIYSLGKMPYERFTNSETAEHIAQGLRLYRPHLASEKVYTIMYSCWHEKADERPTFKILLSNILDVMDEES
Target sequence in this assay (Q96SW2 whole entry): as the sequence (Q96SW2 whole entry partner) above

[13] = AUC (0 to infinity) in Sprague-Dawley rat at 2 mg/kg, iv measured upto 48 hrs; assay type: ADME, organism-based; conditions: in vivo
[14] = biological target: T1, Protein cereblon/Tyrosine-protein kinase BTK (Mus musculus); assay: PROTAC activity at BTK/CRBN in C57BL/6J mouse BMM cells assessed as reduction in mCSF/RANKL-stimulated c-Fos protein expression at 25 to 100 nM followed by stimulated with mCSF/RANKL measured after 2 hrs by Western blot analysis; assay type: cell-based; conditions: BMDM, dose 25-100 nM
[15] = Cmax in Sprague-Dawley rat at 4 mg/kg, ip measured upto 48 hrs; assay type: ADME, organism-based; conditions: in vivo
[16] = Clearance in Sprague-Dawley rat at 2mg/kg, iv measured upto 48 hrs; assay type: ADME, organism-based; conditions: in vivo
[17] = biological target: T1, Protein cereblon/Tyrosine-protein kinase BTK (Mus musculus); assay: PROTAC activity at BTK/CRBN in mCSF/RANKL-stimulated C57BL/6J mouse BMDM assessed as reduction in phosphorylated PLCgamma2 protein level at 25 to 100 nM followed by stimulated with mCSF/RANKL measured after 2 hrs by Western blotting analysis; assay type: cell-based; conditions: dose 25-100 nM
[18] = biological target: T1, Protein cereblon/Tyrosine-protein kinase BTK (Mus musculus); assay: PROTAC activity at BTK/CRBN in C57BL/6J mouse BMDM assessed as reduction in mCSF/RANKL-stimulated intracellular calcium influx by measuring fluorescence intensity measured after 2 hrs by Fluo-4/AM-fluorescent assay; assay type: cell-based; conditions: dose 25-100 nM
[19] = test system: BMMC; assay: Inhibition of RANKKL-induced upregulation of osteoclast related genes in C57BL/6J mouse BMM cells assessed as reduction in mCSF/RANKL-stimulated NFATc1 gene expression at 25 to 100 nM followed by stimulated with mCSF/RANKL measured after 2 hrs by qPCR analysis; assay type: functional, cell-based; conditions: dose 25-100 nM
[20] = Clearance in Sprague-Dawley rat at 4 mg/kg, ip measured upto 48 hrs; conditions: in vivo
[21] = AUC (0 to t) in Sprague-Dawley rat at 2 mg/kg, iv measured upto 48 hrs; assay type: ADME, organism-based; conditions: in vivo
[22] = biological target: T2, Protein cereblon/Tyrosine-protein kinase BTK; assay: Binding affinity to BTK/CRBN (unknown origin) assessed as ternary complex formation by measuring peak HTRF ratio at wavelength 665/620 nm measured after 60 mins incubation by HTRF assay
Target sequence in this assay (Q06187 2-659 limits assumed): as the sequence (Q06187 2-659 limits assumed) above
Target sequence in this assay (Q96SW2 whole entry partner): as the sequence (Q96SW2 whole entry partner) above

[23] = biological target: T2, Protein cereblon/Tyrosine-protein kinase BTK; assay: PROTAC activity at BTK/CRBN in human MINO cells assessed as BTK protein degradation at 100 nM measured after 24 hrs by Western blotting analysis relative to control; assay type: cell-based
Target sequence in this assay (Q06187 2-659 limits assumed): as the sequence (Q06187 2-659 limits assumed) above
Target sequence in this assay (Q96SW2 whole entry partner): as the sequence (Q96SW2 whole entry partner) above

[24] = Cmax in Sprague-Dawley rat at 2 mg/kg, iv measured upto 48 hrs; assay type: ADME, organism-based; conditions: in vivo
[25] = AUC (0 to infinity) in Sprague-Dawley rat at 4 mg/kg, ip measured upto 48 hrs; assay type: ADME, organism-based; conditions: in vivo
[26] = biological target: T2, Protein cereblon/Tyrosine-protein kinase BTK; assay: PROTAC activity at BTK/CRBN in human MINO cells assessed as BTK protein degradation at 20 nM measured after 2 hrs by Western blotting analysis; assay type: cell-based
Target sequence in this assay (Q06187 2-659 limits assumed): as the sequence (Q06187 2-659 limits assumed) above
Target sequence in this assay (Q96SW2 whole entry partner): as the sequence (Q96SW2 whole entry partner) above

[27] = test system: BMMC; assay: Inhibition of RANKKL-induced upregulation of osteoclast related genes in C57BL/6J mouse BMM cells assessed as reduction in mCSF/RANKL-stimulated Dcstamp-gene expression at 25 to 100 nM followed by stimulated with mCSF/RANKL measured after 2 hrs by qPCR analysis; assay type: functional, cell-based; conditions: dose 25-100 nM
[28] = biological target: Protein cereblon (Homo sapiens, UniProt Q96SW2); assay: Inhibition of CRBN (unknown origin) measured after 60 mins incubation by BMG reader
[29] = Apparent volume of distribution in Sprague-Dawley rat at 2 mg/kg, iv measured upto 48 hrs; assay type: ADME, organism-based; conditions: in vivo, read-out: Vz
[30] = biological target: T2, Protein cereblon/Tyrosine-protein kinase BTK; assay: PROTAC activity at BTK/CRBN in human MINO cells assessed as BTK protein degradation pretreated with 2 uM bafilomycin followed by 1 hr treated at 20 nM measured after 48 hrs by Western blotting analysis; assay type: cell-based; conditions: dose […]
Target sequence in this assay (Q06187 2-659 limits assumed): as the sequence (Q06187 2-659 limits assumed) above
Target sequence in this assay (Q96SW2 whole entry partner): as the sequence (Q96SW2 whole entry partner) above

[31] = Bioavailability in Sprague-Dawley rat at 4 mg/kg, ip measured upto 48 hrs; assay type: ADME, organism-based; conditions: in vivo
[32] = biological target: T1, Protein cereblon/Tyrosine-protein kinase BTK (Mus musculus); assay: PROTAC activity at BTK/CRBN in mCSF/RANKL-stimulated C57BL/6J mouse BMDM assessed as reduction in phosphorylated ERK protein level at 25 to 100 nM followed by stimulated with mCSF/RANKL measured after 2 hrs by Western blotting analysis; assay type: cell-based; conditions: dose 25-100 nM

T1 sequence (P35991 whole entry, looked up): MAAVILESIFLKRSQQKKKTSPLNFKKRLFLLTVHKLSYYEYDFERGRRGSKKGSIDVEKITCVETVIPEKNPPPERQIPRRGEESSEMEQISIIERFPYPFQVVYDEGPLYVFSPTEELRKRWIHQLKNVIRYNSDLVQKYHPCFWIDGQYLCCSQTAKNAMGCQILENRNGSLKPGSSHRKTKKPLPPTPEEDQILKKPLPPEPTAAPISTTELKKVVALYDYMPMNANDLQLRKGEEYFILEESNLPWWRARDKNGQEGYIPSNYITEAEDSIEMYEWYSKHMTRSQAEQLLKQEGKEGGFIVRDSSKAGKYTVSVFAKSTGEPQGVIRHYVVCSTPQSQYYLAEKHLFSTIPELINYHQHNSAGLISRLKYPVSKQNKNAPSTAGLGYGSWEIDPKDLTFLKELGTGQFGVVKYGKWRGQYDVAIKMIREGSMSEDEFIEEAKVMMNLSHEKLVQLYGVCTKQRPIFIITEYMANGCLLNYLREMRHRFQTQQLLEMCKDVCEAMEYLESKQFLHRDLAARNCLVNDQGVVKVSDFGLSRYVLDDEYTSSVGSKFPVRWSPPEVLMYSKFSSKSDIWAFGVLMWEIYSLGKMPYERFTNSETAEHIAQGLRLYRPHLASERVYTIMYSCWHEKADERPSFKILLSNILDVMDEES
T1 sequence (Q8C7D2 whole entry, looked up): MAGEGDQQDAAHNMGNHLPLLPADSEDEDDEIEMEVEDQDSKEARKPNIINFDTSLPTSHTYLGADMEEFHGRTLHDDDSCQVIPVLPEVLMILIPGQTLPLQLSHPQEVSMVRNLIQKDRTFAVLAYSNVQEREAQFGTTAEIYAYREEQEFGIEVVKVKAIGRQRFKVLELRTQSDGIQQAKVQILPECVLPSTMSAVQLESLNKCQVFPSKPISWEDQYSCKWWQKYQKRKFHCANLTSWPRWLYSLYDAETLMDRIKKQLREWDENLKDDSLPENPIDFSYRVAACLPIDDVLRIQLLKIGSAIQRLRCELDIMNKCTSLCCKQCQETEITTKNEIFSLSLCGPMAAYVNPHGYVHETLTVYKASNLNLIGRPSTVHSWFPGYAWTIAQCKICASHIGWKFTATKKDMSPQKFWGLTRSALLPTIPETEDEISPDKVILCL
Tyrosine-protein kinase BTK, sequence (Q06187 whole entry): as the sequence (Q06187 whole entry) above
Protein cereblon, sequence (Q96SW2 whole entry): as the sequence (Q96SW2 whole entry partner) above

AUC(0-t) at 48 h [1]: 2800 ng·h/mL
Activity [3]: Active
Activity [5]: inactive
Activity [7]: 99%
Ki [9]: 152 nM
Activity [10]: Active
Activity [11]: 12.3 nM
DC50 [12]: 1.29 nM
AUC(0-inf) [13]: 2350 ng·h/mL
Activity [14]: Active
Cmax [15]: 184 ng/mL
clearance [16]: 15.2 mL/min/kg
Activity [17]: Active
Activity [18]: Dose-Dependent Effect
CL/F at 48 h [20]: 25.8 mL/min/kg
AUC(0-t) at 48 h [21]: 2340 ng·h/mL
Ratio [22]: 8.59
Activity [23]: 99%
Cmax [24]: 645 ng/mL
AUC(0-inf) [25]: 3090 ng·h/mL
Activity [26]: Active
IC50 [28]: 248 nM
Vd [29]: 9.29 L/kg
Activity [30]: inactive
bioavailability [31]: 65.7%
Activity [32]: Active
Structure (SMILES): Cc1cc(-c2nc(Nc3cnn(C4CCN(CC5CCN(c6ccc7c(c6)C(=O)N(C6CCC(=O)NC6=O)C7=O)CC5)CC4)c3)ncc2F)ccc1CNC(=O)c1cn(C(C)(C)C)nn1 (configuration not stated)
Activity [2]: Active
Activity [4]: Active
inhibition [6]: Active
Activity [8]: Non-Toxic
Activity [19]: Active
inhibition [27]: Active

— ChEMBL document CHEMBL5528048, “Discovery of Novel Potent and Fast BTK PROTACs for the Treatment of Osteoclasts-Related Inflammatory Diseases” (J Med Chem, 2024)
